Experimental data from patent US5240961A, “Method of treating reduced insulin-like growth factor and bone loss associated with aging” (priority 1992, dated 1993).
Where “and” joins values, the source holds several entries; their conditions need not be identical. Equal values may be shown once. Entries after “also recorded” stand apart in the source; their conditions may differ. Read-outs that look alike come from different tables or passages of the source.

Experiments:
[1] = Serum carnitine at 12 weeks in adult mice fed L-carnitine, acetyl carnitine or γ-butyrobetaine; design: species or system mouse (BALB/c male); settings: mouse, in vivo, po
Procedure: (§1) The present invention is further explained by the following examples which should not be construed by way of limiting the scope of the present invention. In the following examples, serum carnitine levels were determined by the method of R. Parvin et al., Anal. Biochem., vol. 79 (1979) pp. 190-201. Serum IGF-1 concentrations were measured by immunoradiometric assay, for example, by IRMA Kit available from Diagnostic Systems Laboratories, Inc., Webster, Texas. Serum osteocalcin levels were measured according to the method of Grunaberg et al., Meth. Enzymology, vol 107 (1984) 516, and which is embodied in an osteocalcin kit available from Biomedical Technologies, Inc., Stoughton, Mass. All mice used in the animal studies were BALB/c strain which is commercially available.
(§2) Tests were performed to compare the effects on serum osteocalcin of diet supplementation with L-carnitine, its precursor, γ-butyrobetaine (available from Aldrich Chemical Co.) and one of its metabolites, acetylcarnitine (available from Life Science Resources, Milwaukee, Wis. 53223). Twenty adult mice, i.e., three months of age, (BALB/c male mice) were divided into seven groups. Each of the groups was fed diets as indicated hereinbelow for twelve weeks. One group (n=3) was fed a diet with L-carnitine supplementation at a dose of 50 mg/kg of body weight each day, while the second group (n=3) was fed L-carnitine at a daily dose of about 100 mg/kg. The third group (n=2) was fed a diet with acetylcarnitine supplementation at a daily dose of 50 mg/kg, while the fourth group (n=3) was fed a daily dose of 100 mg/kg of this compound. The fifth group (n=2) was fed a daily dose of 50 mg/kg of γ-butyrobetaine supplementation,while the sixth group was fed a daily dose of 100 mg/kg of γ-butyrobetaine. The seventh group (n=4) was fed normal, unsupplemented feed (control). Mouse blood was sampled prior to beginning of the trial (pretreatment), at six weeks, and at the end of the trial (twelve weeks). The samples were evaluated for serum osteocalcin levels at six and twelve weeks. Total carnitine was determined at twelve weeks.

serum osteocalcin = experiment: Comparative effects of L-carnitine, acetyl carnitine and γ-butyrobetaine on serum osteocalcin in adult mice; type: in vivo, mouse (BALB/c male); settings: for Osteocalcin: actual intake estimated about half
Procedure: as §1, §2

[2] = compared to other vitamin D analogues; cited from earlier work
[3] = prolonged treatment, moderate or high doses; cited from earlier work
[4] = tested on: children with carnitine deficiency; settings: carnitine repletion; cited from earlier work
[5] = human beings; cited from earlier work
body composition = settings: replacement doses; cited from earlier work
[6] = prolonged treatment, moderate or high doses; cited from earlier work; remark: listed apart in the source

C[N+](C)(C)CCCC(=O)[O-] [γ-butyrobetaine, 4-trimethylamino butyrate]
concentration at 2016 h ([1]; 50 mg/kg/day, Serum carnitine, Free): 40.7 µM | concentration at 2016 h ([1]; 50 mg/kg/day, Serum carnitine, Total): 63.2 µM | concentration at 2016 h ([1]; 100 mg/kg/day, Serum carnitine, Free): 40.4 µM | concentration at 2016 h ([1]; 100 mg/kg/day, Serum carnitine, Total): 58.5 µM | significance of difference in osteocalcin vs control (p, student's t test) (serum osteocalcin; 50 mg/kg/day): < 0.05 | Osteocalcin (serum osteocalcin; 50 mg/kg/day, 6 wks): 184 ng/mL and 184 ± 6 ng/mL | Osteocalcin (serum osteocalcin; 50 mg/kg/day, 12 wks): 173 ng/mL | significance of difference in osteocalcin vs control (p, student's t test) (serum osteocalcin; 100 mg/kg/day): < .01 | Osteocalcin (serum osteocalcin; 100 mg/kg/day, 6 wks): 220 ng/mL and 220 ± 75 ng/mL | Osteocalcin (serum osteocalcin; 100 mg/kg/day, 12 wks): 122 ng/mL | effect on osteocalcin (serum osteocalcin; adult mice, 50 and 100 mg/kg/day): stimulate osteocalcin production in adult mice; also recorded: maintained osteocalcin blood levels; also recorded: at least as effective as, and possibly better than, L-carnitine in increasing osteocalcin levels

C=C1/C(=C\C=C2/CCC[C@]3(C)[C@@H]([C@H](C)/C=C/[C@H](C)C(C)C)CC[C@@H]23)C[C@@H](O)C[C@@H]1O [1α-hydroxy vitamin D2]
toxicity [2]: low toxicity

IGF-1: insulin-like growth factor 1, produced and released by the liver in response to growth hormone
potential side-effects [3]: abdominal bloating, indigestion and nausea, and alteration in cellular insulin receptor sites

C[N+](C)(C)CC(O)CC(=O)[O-] (stereo not drawn) [carnitine, β-hydroxy-γ-N-trimethylammounium butyrate]
stunted growth [4]: normalizes with carnitine repletion | serum half-life [5]: about 30 minutes

growth hormone: pituitary growth hormone, now readily available as a biosynthetic product
alterations in body composition (body composition): can be reversed by replacement doses of the hormone | side-effects observed [6]: stimulation of neoplastic growth, acromegaly, amenorrhea, flushing and nausea, "dawn" phenomena (a condition of insulin insufficiency which is very dangerous for diabetics), either hyperglycemia or hypoglycemia in diabetics, and fluid retention

CC(=O)O[C@H](CC(=O)[O-])C[N+](C)(C)C [acetyl L-carnitine, acetylcarnitine, reference compound]
concentration at 2016 h ([1]; 50 mg/kg/day, 12 wks, read-out: Serum carnitine, Free): 45.6 µM | concentration at 2016 h ([1]; 50 mg/kg/day, 12 wks, read-out: Serum carnitine, Total): 59.6 µM | concentration at 2016 h ([1]; 100 mg/kg/day, 12 wks, read-out: Serum carnitine, Free): 52.1 µM | concentration at 2016 h ([1]; 100 mg/kg/day, 12 wks, read-out: Serum carnitine, Total): 65.1 µM | significance of difference in osteocalcin vs control (p, student's t test) (serum osteocalcin; 50 mg/kg/day): < 0.01 | Osteocalcin (serum osteocalcin; 50 mg/kg/day, 6 wks): 70 ng/mL and 70 ± 4 ng/mL | Osteocalcin (serum osteocalcin; 50 mg/kg/day, 12 wks): 62 ng/mL | Osteocalcin (serum osteocalcin; 100 mg/kg/day, 6 wks): 60 ng/mL and 61 ± 6 ng/mL | Osteocalcin (serum osteocalcin; 100 mg/kg/day, 12 wks): 77 ng/mL
